# Measured values as given in patent publication US8648066B2 (Exelixis, Inc., priority 2009, dated 2014).
# Molecular target: mTOR/GbL/Raptor (mTORC1) (Homo sapiens, UniProt P42345)
# Test: mTOR/GbL/Raptor (mTORC1) ELISA assay
# Type: biochemical
# Details: phosphorylation of 4E-BP1; 0.2 nM mTORC1, 10 μM ATP; read-out: IC50 in this assay (mTORC1 ELISA)
# Description: The measurement of mTORC1 enzyme activity was performed in an ELISA assay format following the phosphorylation of 4E-BP1 protein. All experiments were performed in the 384-well format. Generally, 0.5 μL DMSO containing varying concentrations of the test Compound was mixed with 15 μL enzyme solution. Kinase reactions were initiated with the addition of 15 μL of substrates-containing solution. The assay conditions were as follows; 0.2 nM mTORC1, 10 μM ATP and 50 nM NHis-tagged 4E-BP1 in 20 mM Hepes, pH 7.2, 1 mM DTT, 50 mM NaCl, 10 mM MnCl2, 0.02 mg/mL BSA, 0.01% CHAPS, 50 mM β-glycerophosphate. Following an incubation of 120 minutes at ambient temperature, 20 μL of the reaction volume was transferred to a Ni-Chelate-coated 384-well plate. The binding step of the 4E-BP1 protein proceeded for 60 minutes, followed by washing 4 times each with 50 μL of Tris-buffered saline solution (TBS). Anti-phospho-4E-BP1 rabbit-IgG (20 μL, 1:5000) in 5% BSA-TBST (0.2% Tween-20 in TBS) was added and further incubated for 60 minutes. Incubation with a secondary HRP-tagged anti-IgG was similarly performed after washing off the primary antibody (4 washes of 50 μL). Following the final wash step with TBST, 20 μL of SuperSignal ELISA Femto (Pierce Biotechnology) was added and the luminescence measured using an EnVision plate reader.
row,SMILES,IC50 [nM]
1,"CC1(C)CCc2ncnc(N3CCOc4ccc(-c5cnc(N)c(S(=O)(=O)NCCO)c5)cc4C3)c2C1 [Example 371, 2-amino-5-[4-(6,6-dimethyl-5,6,7,8-tetrahydroquinazolin-4-yl)-2,3,4,5-tetrahydro-1,4-benzoxazepin-7-yl]-N-(2-hydroxyethyl)pyridine-3-sulfonamide]",≤ 10
2,"COCCOc1ccc(-c2ccc3c(c2)CN(c2nc(CN(C)C)nc4c2CC(C)(C)CC4)CCO3)cc1OC [Example 327, 1-(6,6-dimethyl-4-{7-[3-(methyloxy)-4-{[2-(methyloxy)ethyl]oxy}phenyl]-2,3-dihydro-1,4-benzoxazepin-4(5H)-yl}-5,6,7,8-tetrahydroquinazolin-2-yl)-N,N-dimethylmethanamine]",250 to 1000
3,"CCNc1nc(N2CCOc3ccc(-c4ccc5nc(NCC)[nH]c5c4)cc3C2)c2ccccc2n1 [Example 270, N-ethyl-4-{7-[2-(ethylamino)-1H-benzimidazol-6-yl]-2,3-dihydro-1,4-benzoxazepin-4(5H)-yl}quinazolin-2-amine]",250 to 1000
4,"CN(C)c1ncc(-c2ccc3c(c2)CN(c2ncnc4c2CC(C)(C)CC4)CCO3)cc1NS(C)(=O)=O [Example 619, N-{2-(dimethylamino)-5-[4-(6,6-dimethyl-5,6,7,8-tetrahydroquinazolin-4-yl)-2,3,4,5-tetrahydro-1,4-benzoxazepin-7-yl]pyridin-3-yl}methanesulfonamide]",10 to 50
5,"Nc1nc2ccc(-c3ccc4c(c3)CN(c3ccnc5ccccc35)CCO4)cc2[nH]1 [Example 190, 6-(4-quinolin-4-yl-2,3,4,5-tetrahydro-1,4-benzoxazepin-7-yl)-1H-benzimidazol-2-amine]",250 to 1000
6,"CNC(=O)c1ccc(-c2ccc3c(c2)CN(c2ccnc4ccccc24)CCO3)cc1 [Example 239, N-methyl-4-(4-quinolin-4-yl-2,3,4,5-tetrahydro-1,4-benzoxazepin-7-yl)benzamide]",50 to 250
7,"Cc1nc(CN(C)C)nc(N2CCOc3ccc(-c4cnc5sc(N)nc5c4)cc3C2)c1CC1CC1 [Example 663, 6-(4-{5-(cyclopropylmethyl)-2-[(dimethylamino)methyl]-6-methylpyrimidin-4-yl}-2,3,4,5-tetrahydro-1,4-benzoxazepin-7-yl)[1,3]thiazolo[5,4-b]pyridin-2-amine]",50 to 250
8,"CNS(=O)(=O)c1cc(-c2ccc3c(c2)CN(c2ncnc4c2CC(C)(C)CC4)CCO3)cnc1N [Example 397, 2-amino-5-[4-(6,6-dimethyl-5,6,7,8-tetrahydroquinazolin-4-yl)-2,3,4,5-tetrahydro-1,4-benzoxazepin-7-yl]-N-methylpyridine-3-sulfonamide]",≤ 10
9,"CC1(C)CCc2ncnc(N3CCOc4ccc(-c5cnc(Cl)c(S(=O)(=O)N6CC[C@H](N)C6)c5)cc4C3)c2C1 [Example 307, (3S)-1-({2-chloro-5-[4-(6,6-dimethyl-5,6,7,8-tetrahydroquinazolin-4-yl)-2,3,4,5-tetrahydro-1,4-benzoxazepin-7-yl]pyridin-3-yl}sulfonyl)pyrrolidin-3-amine]",250 to 1000
10,"c1ccc2c(N3CCOc4ccc(-c5ccc6nc(C7CNC7)[nH]c6c5)cc4C3)ccnc2c1 [Example 201, 7-(2-azetidin-3-yl-1H-benzimidazol-6-yl)-4-quinolin-4-yl-2,3,4,5-tetrahydro-1H-benzoxazepine]",1000 to 2000
11,"COc1ccc2c(N3CCOc4ccc(-c5ccc6nc(N)[nH]c6c5)cc4C3)nc(C)nc2c1 [Example 539, 6-{4-[2-methyl-7-(methyloxy)quinazolin-4-yl]-2,3,4,5-tetrahydro-1,4-benzoxazepin-7-yl}-1H-benzimidazol-2-amine]",50 to 250
12,"CC(C)c1nc2ccc(-c3ccc4c(c3)CN(c3ccnc5ccccc35)CCO4)cc2[nH]1 [Example 203, 7-[2-(1-methylethyl)-1H-benzimidazol-6-yl]-4-quinolin-4-yl-2,3,4,5-tetrahydro-1,4-benzoxazepine]",1000 to 2000
13,"Cc1nc2ccc(-c3ccc4c(c3)CN(c3ncnc5ccc(OCCCN(C)C)cc35)CCO4)cc2[nH]1 [Example 161, N,N-dimethyl-3-({4-[7-(2-methyl-1H-benzimidazol-6-yl)-2,3-dihydro-1,4-benzoxazepin-4(5H)-yl]quinazolin-6-yl}oxy)propan-1-amine]",1000 to 2000
14,"C=CCc1c(C)nc(CN(C)C)nc1N1CCOc2ccc(-c3cnc4sc(N)nc4c3)cc2C1 [Example 670, 6-(4-{2-[(dimethylamino)methyl]-6-methyl-5-prop-2-en-1-ylpyrimidin-4-yl}-2,3,4,5-tetrahyhdro-1,4-benzoxazepin-7-yl)[1,3]thiazolo[5,4-b]pyridin-2-amine]",10 to 50
15,"Cc1nc2ccc(-c3ccc4c(c3)CN(c3ncnc(C)c3Cc3ccc(Cl)cc3)CCO4)cc2[nH]1 [Example 80, 4-{5-[(4-chlorophenyl)methyl]-6-methylpyrimidin-4-yl}-7-(2-methyl-1H-benzimidazol-6-yl)-2,3,4,5-tetrahydro-1,4-benzoxazepine]",≤ 10
16,"COc1ccc2c(N3CCOc4ccc(-c5cnc(Cl)c(NS(C)(=O)=O)c5)cc4C3)ncnc2c1 [Example 608, N-(2-chloro-5-{4-[7-(methyloxy)quinazolin-4-yl]-2,3,4,5-tetrahydro-1,4-benzoxazepin-7-yl}pyridin-3-yl)methanesulfonamide]",10 to 50
17,"Cc1nc(Nc2ccccc2)c(C)c(N2CCOc3ccc(-c4ccc5nc[nH]c5c4)cc3C2)n1 [Example 529, 6-[7-(1H-benzimidazol-6-yl)-2,3-dihydro-1,4-benzoxazepin-4(5H)-yl]-2,5-dimethyl-N-phenylpyrimidin-4-amine]",250 to 1000

# Continued, values first:
row,IC50 [nM],SMILES
1,50 to 250,"Cc1nc2ncc(-c3ccc4c(c3)CN(c3ncnc(Cl)c3C)CCO4)cc2[nH]1 [Example 481, 4-(6-chloro-5-methylpyrimidin-4-yl)-7-(2-methyl-1H-imidazo[4,5-b]pyridin-6-yl)-2,3,4,5-tetrahydro-1,4-benzoxazepine]"
2,250 to 1000,"Cc1nc2ccc(-c3ccc4c(c3)CN(c3ncnc5ccc(OCC#N)cc35)CCO4)cc2[nH]1 [Example 160, ({4-[7-(2-methyl-1H-benzimidazol-6-yl)-2,3-dihydro-1,4-benzoxazepin-4(5H)-yl]quinazolin-6-yl}oxy)acetonitrile]"
3,10 to 50,"Cc1nc2ccc(-c3ccc4c(c3)CN(c3ncnc5c3CCC(C)(C)C5)CCO4)cc2[nH]1 [Example 95, 4-(7,7-dimethyl-5,6,7,8-tetrahydroquinazolin-4-yl)-7-(2-methyl-1H-benzimidazol-6-yl)-2,3,4,5-tetrahydro-1,4-benzoxazepine]"
4,50 to 250,"CCc1c(C)nc(C)nc1N1CCOc2ccc(-c3cnc4nc(C)[nH]c4c3)cc2C1 [Example 469, 4-(5-ethyl-2,6-dimethylpyrimidin-4-yl)-7-(2-methyl-1H-imidazo[4,5-b]pyridin-6-yl)-2,3,4,5-tetrahydro-1,4-benzoxazepine]"
5,50 to 250,"C[C@H]1CCc2c(ncnc2N2CCOc3ccc(-c4cnc5nc(C6CC6)[nH]c5c4)cc3C2)C1 [Example 546, 7-(2-cyclopropyl-1H-imidazo[4,5-b]pyridin-6-yl)-4-[(7S)-7-methyl-5,6,7,8-tetrahydroquinazolin-4-yl]-2,3,4,5-tetrahydro-1,4-benzoxazepine]"
6,250 to 1000,"Cc1nc2ccc(-c3ccc4c(c3)CN(c3ncnc5c3CCCC5)CCO4)cc2[nH]1 [Example 46, 7-(2-methyl-1H-benzimidazol-6-yl)-4-(5,6,7,8-tetrahydroquinazolin-4-yl)-2,3,4,5-tetrahydro-1,4-benzoxazepine]"
7,≤ 10,CC1=Cc2ncnc(N3CCOc4ccc(-c5cnc6nc(C)[nH]c6c5)cc4C3)c2CC1(C)C [Example 553]
8,250 to 1000,"Cc1nc2ccc(-c3ccc4c(c3)CN(c3ncnc5ccc(S(C)(=O)=O)cc35)CCO4)cc2[nH]1 [Example 50, 7-(2-methyl-1H-benzimidazol-6-yl)-4-[6-(methylsulfonyl)quinazolin-4-yl]-2,3,4,5-tetrahydro-1,4-benzoxazepine]"
9,250 to 1000,"Cc1nc2ncc(-c3ccc4c(c3)CN(c3ncncc3C)CCO4)cc2[nH]1 [Example 169, 7-(2-methyl-1H-imidazo[4,5-b]pyridin-6-yl)-4-(5-methylpyrimidin-4-yl)-2,3,4,5-tetrahydro-1,4-benzoxazepine]"
10,250 to 1000,"Cc1nc2ncc(-c3ccc4c(c3)CN(c3ncnc(N5CCC5)c3C)CCO4)cc2[nH]1 [Example 480, 4-(6-azetidin-1-yl-5-methylpyrimidin-4-yl)-7-(2-methyl-1H-imidazo[4,5-b]pyridin-6-yl)-2,3,4,5-tetrahydro-1,4-benzoxazepine]"
11,≤ 10,"COC(=O)Nc1nc2ncc(-c3ccc4c(c3)CN(c3ncnc5c3CC(C)(C)C=C5)CCO4)cc2[nH]1 [Example 583, methyl {6-[4-(6,6-dimethyl-5,6-dihydroquinazolin-4-yl)-2,3,4,5-tetrahydro-1,4-benzoxazepin-7-yl]-1H-imidazo[4,5-b]pyridin-2-yl}carbamate]"
12,≤ 10,"CCNc1nc2ncc(-c3ccc4c(c3)CN(c3ncnc5c3CC(C)(C)CC5)CCO4)cc2[nH]1 [Example 264, 6-[4-(6,6-dimethyl-5,6,7,8-tetrahydroquinbazolin-4-yl)-2,3,4,5-tetrahydro-1,4-benzoxazepin-7-yl]-N-ethyl-1H-imidazo[4,5-b]pyridin-2-amine]"
